Among the test systems are BT-549 breast; HCT-116 colon; HOP-62 NSCLC; NCI-H460 lung; NCI/ADR-RES ovarian; OVCAR-5 ovarian; SF-539 CNS; SK-MEL-2 melanoma; SNB-75 CNS; U251 CNS.
What all share (assay): inhibition of tumour cell growth, NCI panel, 48 h

Values joined by “and” are separate entries in the source; they are usually repeats but may differ in a detail not shown here. Equal entries are not always repeated.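 In this assay, cells in 96-well plates receive the compound at five concentrations for 48 hours. Endpoints are linearly interpolated between the surrounding concentrations. At the GI50, growth is halved. TGI: concentration producing complete growth inhibition.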

For the compound `CN(C)CCOc1ccc(/C(=C(/CCCl)c2ccccc2)c2ccccc2)cc1`, the GI50 with BT-549 breast was 976 nM; in the experiment on HCT-116 colon, 1590 nM; in the experiment with HOP-62 NSCLC it was 993 nM; with NCI-H460 lung, 845 nM; in the experiment on NCI/ADR-RES ovarian, 1600 nM; in the experiment on OVCAR-5 ovarian, 1520 nM. For the same compound, the GI50 with SF-539 CNS is 891 nM; with SK-MEL-2 melanoma, 975 nM; in the experiment on SNB-75 CNS, 1110 nM; in the experiment with U251 CNS, 815 nM. In addition, the TGI in the experiment with BT-549 breast was 1800 nM; with HCT-116 colon, 5330 nM and 30400 nM; in the experiment on NCI/ADR-RES ovarian it was 4950 nM and 30700 nM; in the experiment on OVCAR-5 ovarian, 5090 nM and 33500 nM; in the experiment on SNB-75 CNS, 4480 nM and 24200 nM.
For the compound `COc1ccc2c(c1)C(=O)C(=O)c1cc(O)c(OC)c(OC)c1-2`, the GI50 is 1660 nM in the experiment on BT-549 breast; 1720 nM in the experiment on HCT-116 colon; 1150 nM in the experiment with HOP-62 NSCLC; 1640 nM with NCI-H460 lung; 1840 nM in the experiment with NCI/ADR-RES ovarian; 1650 nM in the experiment with OVCAR-5 ovarian. Also, the GI50 in the experiment on SK-MEL-2 melanoma was 1950 nM; in the experiment with SNB-75 CNS it was 1690 nM; in the experiment on U251 CNS it was 1780 nM. Further, the TGI in the experiment on BT-549 breast is 1440 nM and 3020 nM; with HCT-116 colon, 1600 nM and 3090 nM; in the experiment with HOP-62 NSCLC, 1720 nM and 2580 nM; in the experiment on NCI-H460 lung it was 9970 nM and 3160 nM; with NCI/ADR-RES ovarian, 2410 nM and 5220 nM; with OVCAR-5 ovarian, 2420 nM and 3130 nM. The TGI in the experiment with SF-539 CNS was 3350 nM; with SK-MEL-2 melanoma, 1620 nM and 3420 nM; in the experiment with SNB-75 CNS it was 2850 nM and 3060 nM; in the experiment with U251 CNS it was 1640 nM and 3160 nM.
For the compound `CN1CCN(c2ccc3nc(-c4c(N)c5c(F)cccc5[nH]c4=O)[nH]c3c2)CC1`, the GI50 in the experiment with BT-549 breast was 1620 nM and 501 nM and 1260 nM; with HCT-116 colon, 619 nM and 466 nM and 992 nM; with HOP-62 NSCLC it was 1080 nM and 829 nM and 1580 nM; in the experiment on NCI-H460 lung, 369 nM and 344 nM and 454 nM; in the experiment on NCI/ADR-RES ovarian, 1770 nM and 2640 nM and 2470 nM; in the experiment with OVCAR-5 ovarian it was 1420 nM and 1030 nM and 1760 nM. Further, the GI50 is 566 nM and 338 nM and 487 nM in the experiment with SF-539 CNS; 419 nM and 400 nM and 936 nM with SK-MEL-2 melanoma; 695 nM and 399 nM and 994 nM in the experiment on SNB-75 CNS; 1020 nM and 652 nM and 780 nM with U251 CNS. The TGI with BT-549 breast is 10200 nM and > 2970 nM and 5950 nM; with HCT-116 colon, 1930 nM and 4350 nM and 2400 nM; in the experiment on HOP-62 NSCLC, 2700 nM and > 3730 nM and 8180 nM; in the experiment on NCI-H460 lung it was 1720 nM and 1790 nM and 2200 nM; in the experiment with NCI/ADR-RES ovarian, 7180 nM and > 10000 nM and 13000 nM; in the experiment on OVCAR-5 ovarian, 3940 nM and > 6960 nM and 6940 nM. Moreover, the TGI with SF-539 CNS is 1960 nM and 1210 nM and 1750 nM; with SK-MEL-2 melanoma it was 5410 nM and > 2240 nM and 22800 nM; with SNB-75 CNS, 2640 nM and 8040 nM and 5680 nM; in the experiment on U251 CNS it was 2450 nM and > 3320 nM and 3490 nM.
Regarding `COc1ccc2nc3cc(Cl)ccc3c(N3CCN(c4ccnc(N5CCOCC5)n4)CC3)c2c1`, the GI50 is over 100000 nM in the experiment on BT-549 breast; 6290 nM in the experiment with HCT-116 colon; 63100 nM with HOP-62 NSCLC; over 100000 nM in the experiment on NCI-H460 lung; 50800 nM with NCI/ADR-RES ovarian; 7580 nM in the experiment on OVCAR-5 ovarian. Besides, the GI50 with SF-539 CNS is over 100000 nM; in the experiment on SK-MEL-2 melanoma it was 53300 nM; with SNB-75 CNS it was 10600 nM; in the experiment on U251 CNS it was over 100000 nM. Besides, the TGI with BT-549 breast, with HCT-116 colon, in the experiment on HOP-62 NSCLC, with NCI-H460 lung, in the experiment with NCI/ADR-RES ovarian and in the experiment with OVCAR-5 ovarian was over 100000 nM throughout. Also, the TGI with SF-539 CNS was over 100000 nM; in the experiment with SK-MEL-2 melanoma, over 100000 nM; in the experiment on SNB-75 CNS it was 65300 nM; in the experiment with U251 CNS, over 100000 nM.
For the compound `COc1cnc2c(c1)C(=O)c1c-2n(CCCN2CCC(O)CC2)c(=O)c2cc(F)ccc12`, the GI50 in the experiment with BT-549 breast is 697 nM; in the experiment on HCT-116 colon it was 89.5 nM; in the experiment with HOP-62 NSCLC it was 142 nM; in the experiment on NCI-H460 lung, 44.4 nM; in the experiment with NCI/ADR-RES ovarian it was 303 nM; in the experiment with OVCAR-5 ovarian it was 355 nM. The GI50 in the experiment with SF-539 CNS was 295 nM; with SK-MEL-2 melanoma, 610 nM; in the experiment with SNB-75 CNS, 252 nM; in the experiment with U251 CNS, 81.4 nM. In addition, the TGI turned out to be 14400 nM in the experiment with BT-549 breast; 591 nM in the experiment with HCT-116 colon; 645 nM in the experiment on HOP-62 NSCLC; 221 nM with NCI-H460 lung; 1980 nM with NCI/ADR-RES ovarian; 1600 nM in the experiment with OVCAR-5 ovarian. Besides, the TGI in the experiment on SF-539 CNS was 1140 nM; in the experiment with SK-MEL-2 melanoma, 2860 nM; with SNB-75 CNS it was 2590 nM; with U251 CNS it was 453 nM.
As to `Cc1noc(C)c1-c1cc(O)cc(C(O)c2ccccc2)c1` (configuration not stated), the GI50 in the experiment on BT-549 breast is 28200 nM; in the experiment on HCT-116 colon, 7080 nM; with HOP-62 NSCLC, 4890 nM; in the experiment with NCI-H460 lung, 25100 nM; with NCI/ADR-RES ovarian, 6320 nM; with OVCAR-5 ovarian, 31800 nM. Also, the GI50 with SF-539 CNS was 4560 nM; in the experiment on SK-MEL-2 melanoma, 23500 nM; with SNB-75 CNS it was 423 nM; in the experiment with U251 CNS, 15000 nM. Moreover, the TGI in the experiment on BT-549 breast, with HCT-116 colon, with HOP-62 NSCLC, in the experiment with NCI-H460 lung, with NCI/ADR-RES ovarian and with OVCAR-5 ovarian was over 100000 nM in each case. For the same compound, the TGI with SF-539 CNS, in the experiment with SK-MEL-2 melanoma, in the experiment on SNB-75 CNS and in the experiment with U251 CNS was over 100000 nM throughout.
Take `O=c1cc(N2CCNCC2)oc2c(-c3ccccc3)cccc12`: the GI50 with BT-549 breast is over 100000 nM; with HOP-62 NSCLC, 65400 nM; in the experiment with NCI-H460 lung, 48700 nM; in the experiment with NCI/ADR-RES ovarian, over 100000 nM; in the experiment on OVCAR-5 ovarian it was over 100000 nM; in the experiment on SF-539 CNS, 68000 nM. Moreover, the GI50 was 51500 nM with SK-MEL-2 melanoma, 15300 nM with SNB-75 CNS and 35400 nM in the experiment with U251 CNS. Further, the TGI in the experiment on BT-549 breast, in the experiment on HOP-62 NSCLC, with NCI-H460 lung, in the experiment on NCI/ADR-RES ovarian, with OVCAR-5 ovarian and in the experiment on SF-539 CNS was over 100000 nM in each case. Moreover, the figures for the TGI in the experiment on SK-MEL-2 melanoma, in the experiment on SNB-75 CNS and in the experiment with U251 CNS were over 100000 nM, 75000 nM and over 100000 nM, respectively.
With `c1ccc(-c2cc(C3CO3)c3ccccc3n2)cc1` (configuration not stated), the TGI in the experiment with BT-549 breast stood at 43600 nM; in the experiment with HCT-116 colon, 30200 nM; in the experiment with HOP-62 NSCLC, 67500 nM; in the experiment on NCI-H460 lung, 39100 nM; in the experiment with NCI/ADR-RES ovarian, 57600 nM; in the experiment with OVCAR-5 ovarian, 40500 nM. In addition, the TGI in the experiment with SF-539 CNS is 56700 nM; with SK-MEL-2 melanoma it was 34600 nM; in the experiment with SNB-75 CNS, 62600 nM; in the experiment with U251 CNS, 30000 nM.

The record behind these values is PubChem BioAssay (NCI).
